Test results: ChEMBL document CHEMBL2086273, “Significant activity of ecdysteroids on the resistance to doxorubicin in mammalian cancer cells expressing the human ABCB1 transporter” (J Med Chem, 2012); call rule not given here

Experiments:
[1] = molecular target: T1, ATP-dependent translocase ABCB1 (Homo sapiens, UniProt P08183); assay: Inhibition of human ABCB1 expressed in mouse L5178 cells assessed as 50% inhibition of cell proliferation at compound-doxorubicin ratio of 81.5:1 after 48 hrs by MTT assay; format: cell-based; conditions: l5178, 48 h
T1 sequence (P08183 whole entry): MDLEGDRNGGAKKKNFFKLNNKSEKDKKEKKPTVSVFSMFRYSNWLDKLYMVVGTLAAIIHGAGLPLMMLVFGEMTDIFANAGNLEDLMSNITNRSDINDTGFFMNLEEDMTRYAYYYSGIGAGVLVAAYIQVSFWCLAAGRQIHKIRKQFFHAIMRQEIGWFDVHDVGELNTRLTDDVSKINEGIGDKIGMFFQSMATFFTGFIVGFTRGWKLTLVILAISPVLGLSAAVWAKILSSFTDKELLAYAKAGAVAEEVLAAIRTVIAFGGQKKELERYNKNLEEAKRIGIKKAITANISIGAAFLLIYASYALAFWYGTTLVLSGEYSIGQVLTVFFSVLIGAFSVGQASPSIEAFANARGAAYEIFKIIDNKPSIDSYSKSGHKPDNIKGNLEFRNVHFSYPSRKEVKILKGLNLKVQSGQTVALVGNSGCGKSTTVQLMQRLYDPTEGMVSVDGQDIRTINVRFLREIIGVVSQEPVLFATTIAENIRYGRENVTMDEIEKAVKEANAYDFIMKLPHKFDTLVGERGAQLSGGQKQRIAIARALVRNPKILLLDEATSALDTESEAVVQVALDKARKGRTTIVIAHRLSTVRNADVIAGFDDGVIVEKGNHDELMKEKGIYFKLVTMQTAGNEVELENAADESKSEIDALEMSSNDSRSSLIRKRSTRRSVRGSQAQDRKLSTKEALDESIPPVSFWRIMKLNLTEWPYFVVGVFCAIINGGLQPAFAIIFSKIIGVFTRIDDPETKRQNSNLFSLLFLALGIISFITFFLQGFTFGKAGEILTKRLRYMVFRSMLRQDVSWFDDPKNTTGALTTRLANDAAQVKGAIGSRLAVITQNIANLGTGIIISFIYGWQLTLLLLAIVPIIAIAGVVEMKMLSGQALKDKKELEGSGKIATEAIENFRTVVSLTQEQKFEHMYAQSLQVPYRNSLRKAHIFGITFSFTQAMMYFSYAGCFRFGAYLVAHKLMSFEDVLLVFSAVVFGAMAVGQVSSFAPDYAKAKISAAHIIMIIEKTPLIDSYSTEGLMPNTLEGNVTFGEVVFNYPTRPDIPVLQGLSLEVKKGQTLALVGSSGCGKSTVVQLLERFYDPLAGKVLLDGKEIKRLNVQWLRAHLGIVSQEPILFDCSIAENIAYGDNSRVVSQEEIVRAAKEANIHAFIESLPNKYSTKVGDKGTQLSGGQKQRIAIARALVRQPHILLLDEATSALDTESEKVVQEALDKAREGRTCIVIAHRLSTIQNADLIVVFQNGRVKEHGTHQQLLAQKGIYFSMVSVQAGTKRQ

[2] = molecular target: T1, ATP-dependent translocase ABCB1; assay: Inhibition of human ABCB1 expressed in mouse L5178 cells assessed as 95% inhibition of cell proliferation at compound-doxorubicin ratio of 81.5:1 after 48 hrs by MTT assay; format: cell-based; conditions: l5178, 48 h
[3] = molecular target: T1, ATP-dependent translocase ABCB1; assay: Inhibition of human ABCB1 pump expressed in mouse L5178 cells assessed as fluorescence activity ratio at 20 uM for 10 mins by flow cytometry relative to control; format: cell-based; conditions: l5178, 10 min
[4] = molecular target: T1, ATP-dependent translocase ABCB1; assay: Inhibition of human ABCB1 expressed in mouse L5178 cells assessed as 75% inhibition of cell proliferation at compound-doxorubicin ratio of 81.5:1 after 48 hrs by MTT assay; format: cell-based; conditions: l5178, 48 h
[5] = Antiproliferative activity against multidrug-resistant mouse L5178 cells after 72 hrs by MTT assay; format: functional, cell-based; conditions: L5178, 72 h
[6] = molecular target: T1, ATP-dependent translocase ABCB1; assay: Inhibition of human ABCB1 expressed in mouse L5178 cells assessed as 95% inhibition of cell proliferation at compound-doxorubicin ratio of 20.4:1 after 48 hrs by MTT assay; format: cell-based; conditions: l5178, 48 h
[7] = system: Mus musculus; assay: Acute toxicity in CFLP mouse at 250 mg/kg, ip administered as single dose; format: organism-based; parameters: dose 250 mg/kg, route intraperitoneal; conditions: in vivo
[8] = system: Mus musculus; assay: Acute toxicity in CFLP mouse at 250 mg/kg, ip co-administered with […] doxorubicin after 48 hrs; format: organism-based; parameters: dose 250 mg/kg, route intraperitoneal; conditions: in vivo
[9] = molecular target: T1, ATP-dependent translocase ABCB1; assay: Inhibition of human ABCB1 expressed in mouse L5178 cells assessed as 75% inhibition of cell proliferation at compound-doxorubicin ratio of 20.4:1 after 48 hrs by MTT assay; format: cell-based; conditions: l5178, 48 h
[10] = molecular target: T1, ATP-dependent translocase ABCB1; assay: Inhibition of human ABCB1 expressed in mouse L5178 cells assessed as 50% inhibition of cell proliferation at compound-doxorubicin ratio of 20.4:1 after 48 hrs by MTT assay; format: cell-based; conditions: l5178, 48 h
[11] = Drug degradation of the compound in hydrochloric acid solution at pH 1.48 assessed as 20E 20,22-acetonide formation at 1 mg/ml; format: physicochemical; conditions: buffer
[12] = Half life of the compound in hydrochloric acid solution at pH 1.48 at 1 mg/ml; format: physicochemical

Ratio [3]	SMILES	fractional inhibitory concentration index (FICI) [1]	fractional inhibitory concentration index (FICI) [2]	fractional inhibitory concentration index (FICI) [4]	IC50 [5] [µM]	fractional inhibitory concentration index (FICI) [6]	Activity [7]	Activity [8]	fractional inhibitory concentration index (FICI) [9]	fractional inhibitory concentration index (FICI) [10]	Drug degradation [11]	half-life at 1 mg/ml [12] [min]
0.89	CC(C)(O)CC[C@@H](O)[C@](C)(O)[C@H]1CC[C@@]2(O)C3=CC(=O)[C@@H]4C[C@H](O)[C@@H](O)C[C@]4(C)[C@H]3CC[C@]12C	1.16	0.22	0.45	30	–	–	–	–	–	–	–
1.32	CC(O)(CO)CC[C@@H](O)[C@](C)(O)[C@H]1CC[C@@]2(O)C3=CC(=O)[C@]4(O)C[C@@H](O)[C@@H](O)C[C@]4(C)[C@H]3CC[C@]12C (stereo partly drawn)	2.24	0.12	0.47	30	–	–	–	–	–	–	–
1.03	CC(C)(O)CC[C@@H](O)[C@](C)(O)[C@H]1CC[C@]2(O)C3=CC(=O)[C@@H]4C[C@@H](O)[C@@H](O)C[C@]4(C)[C@H]3CC[C@]12C	1.18	0.69	0.91	30	–	–	–	–	–	–	–

SMILES	Ratio [3]	fractional inhibitory concentration index (FICI) [1]	fractional inhibitory concentration index (FICI) [2]	fractional inhibitory concentration index (FICI) [4]	IC50 [5] [µM]	fractional inhibitory concentration index (FICI) [6]	Activity [7]	Activity [8]	fractional inhibitory concentration index (FICI) [9]	fractional inhibitory concentration index (FICI) [10]	Drug degradation [11]	half-life at 1 mg/ml [12] [min]
CC(C)(O)CC[C@H]1OC(C)(C)O[C@]1(C)[C@H]1CC[C@@]2(O)C3=CC(=O)[C@@H]4C[C@H]5OC(C)(C)O[C@H]5C[C@]4(C)[C@H]3CC[C@]12C	19.13	–	–	–	–	0.073	Non-toxic	Non-toxic	0.14	0.28	Active	7.3
CC(C)CC[C@H](O)[C@](C)(O)[C@H]1CC[C@@]2(O)C3=CC(=O)[C@@H]4C[C@@H](O)[C@@H](O)C[C@]4(C)[C@H]3[C@H](O)C[C@]12C [AJUGASTERONE C]	1.13	–	–	–	30	1.88	–	–	1.66	1.79	–	–
